Reference: ChEMBL document CHEMBL1201862, “PubChem BioAssay data set” (2004)
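1) Cells in 96-well plates. 2) Compound, 48 h, 5 concentrations. 3) Linear interpolation between surrounding doses. 4) Unreached endpoint = highest concentration. GI50 = concentration required for 50% inhibition of growth.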 Calls of active or inactive are those of the source. No stated cut-off is given here; in the data, active = GI50 up to about 1.1 µM and inactive = higher.

Key:
Assay in all cases: DTP human tumour cell line panel, 48 h
MDA-MB-231 = tested on: MDA-MB-231
MDA-MB-435 = tested on: MDA-MB-435
MDA-N = tested on: MDA-N
Malme-3M = tested on: Malme-3M
786-0 = tested on: 786-0
DMS-273 = tested on: DMS-273
RXF 631 = tested on: RXF 631
XF498 = tested on: XF498
DLD-1 = tested on: DLD-1

Measured: GI50

O=C1CCCC/C1=C1/SC(=N/c2ccccc2)/C(=N\c2ccccc2)N1c1ccccc1
inactive: MDA-MB-231 > 100 µM | MDA-MB-435 > 10 µM | MDA-N > 100 µM | Malme-3M > 100 µM

N/C(S)=N/N=C/c1cc(CN2CCOCC2)c(N)cn1
inactive: 786-0 65.2 µM | MDA-MB-231 48.1 µM | MDA-MB-435 70.3 µM | MDA-N 56.1 µM | Malme-3M 31.3 µM

C=CCOC1OC(CS(=O)(=O)O)C(O)C(O)C1O (configuration not stated)
inactive: MDA-MB-231 > 100 µM | MDA-MB-435 > 100 µM | MDA-N > 100 µM | Malme-3M > 100 µM

O=C(NNC(=S)Nc1ccccc1)c1nsc2ccccc12
inactive: DMS-273 17.3 µM

CCN(CC)/[N+]([O-])=N/O
inactive: DMS-273 > 100 µM | RXF 631 > 100 µM | XF498 18.9 µM

CC(=O)c1ccccc1NP(=O)(c1ccccc1)c1ccccc1
inactive: 786-0 > 100 µM | MDA-MB-231 32.5 µM | MDA-MB-435 38.7 µM | MDA-N 36.9 µM | Malme-3M 34 µM

CS(C)(=O)=Nn1c(=O)n2n(c1=O)C1c3ccccc3C2c2ccccc21
inactive: MDA-MB-231 > 100 µM | MDA-MB-435 > 100 µM | MDA-N > 100 µM | Malme-3M > 100 µM

O=C(CCCn1cnc([N+](=O)[O-])n1)NCCn1ccnc1[N+](=O)[O-]
inactive: MDA-N > 100 µM

CSC1SCC2C(=O)N(C)C(C(C)C)C(=O)OCC(NC(=O)c3cnc4ccccc4n3)C(=O)NC(C)C(=O)N(C)C1C(=O)N(C)C(C(C)C)C(=O)OCC(NC(=O)c1cnc3ccccc3n1)C(=O)NC(C)C(=O)N2C (configuration not stated)
active: DLD-1 0.0075 µM | DMS-273 0.0075 µM | MDA-MB-231 0.000906 µM | MDA-MB-435 0.00105 µM

COC(=O)CN(C)P(=O)(N1CC1)N1CC1
inactive: DLD-1 > 100 µM | DMS-273 > 100 µM | Malme-3M > 100 µM | RXF 631 > 100 µM

O=C(Nc1ccc([N+](=O)[O-])cc1)C(=O)C(C(=O)c1ccccc1F)C1OC(=O)c2ccccc21 (configuration not stated)
inactive: DLD-1 40.6 µM | DMS-273 23.8 µM | RXF 631 26 µM | XF498 70.3 µM

Nc1nc2ccc3ccccc3c2[nH]1
inactive: MDA-MB-231 > 10 µM | MDA-MB-435 > 10 µM | MDA-N > 10 µM | Malme-3M > 10 µM

Cc1ccc(S(=O)(=O)NCCSS(=O)(=O)c2ccc(C)cc2)cc1
inactive: MDA-MB-231 37.7 µM | MDA-MB-435 22.3 µM | MDA-N 23.1 µM

COc1ccc(/N=C\c2ccc(N(CCC#N)S(=O)(=O)c3ccccc3)cc2C)cc1
inactive: Malme-3M 25.6 µM | RXF 631 59.8 µM | XF498 > 100 µM

COc1ccc2c(O)c3[n+](cc2c1OC)CCc1cc2c(cc1-3)OCO2
inactive: MDA-MB-231 > 100 µM | MDA-MB-435 24.8 µM | MDA-N 33.6 µM

CN(C)C(=O)Oc1c(Br)cc(Br)cc1C(=O)OCc1ccccc1
inactive: DLD-1 25.4 µM | DMS-273 17.3 µM | Malme-3M 24.9 µM | XF498 19.3 µM

C1CSCCSCCSCCSC1
inactive: MDA-MB-231 > 100 µM | MDA-MB-435 > 100 µM | MDA-N > 100 µM

O=c1c(-c2ccccc2)c(SCCN2CCOCC2)n(-c2ccccc2)c(=S)n1-c1ccccc1
inactive: MDA-MB-231 83.9 µM | MDA-MB-435 > 100 µM | Malme-3M > 100 µM

C[N+](C)(C)CCOC(=O)/C=C/c1c[nH]cn1
inactive: DLD-1 > 500 µM | DMS-273 > 500 µM | Malme-3M > 500 µM | XF498 > 500 µM

CCNC(=S)NNC(=O)c1nsc2ccccc12
inactive: DMS-273 97.5 µM
